Laboratory results taken from paper PMC4450297, “Screening Active Compounds from Garcinia Species Native to China Reveals Novel Compounds Targeting the STAT/JAK Signaling Pathway” (BioMed Research International, 2015).

Assays:
Assay in all cases: Cell panel screen (CellTiter-Glo)
Format in all cases: cell-based, human
T98G = T98G (Brain), 20 micromolar, 72 hrs
Summary of the method: (§1)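 Values are % growth inhibition: the signal of treated wells was set against untreated (DMSO) wells, with cell-free wells as background. Treatment lasted 72 h at 20 μM final compound, and ATP content was read by luminescence.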

NCI-H1770 = NCI-H1770 (Lung), 20 micromolar, 72 hrs
Summary of the method: as §1

RL95 = RL95 (Uterus), 20 micromolar, 72 hrs
Summary of the method: as §1

NCI-H2405 = NCI-H2405 (Lung), 20 micromolar, 72 hrs
Summary of the method: as §1

Bel-7402 = Bel-7402 (Liver), 20 micromolar, 72 hrs
Summary of the method: as §1

HT-1197 = HT-1197 (Urinary bladder), 20 micromolar, 72 hrs
Summary of the method: as §1

NCI-H2347 = NCI-H2347 (Lung), 20 micromolar, 72 hrs
Summary of the method: as §1

C8166 = C8166 (Leukemia), 20 micromolar, 72 hrs
Summary of the method: as §1

TCCSUP = TCCSUP (Urinary bladder), 20 micromolar, 72 hrs
Summary of the method: as §1

M059J = M059J (Brain), 20 micromolar, 72 hrs
Summary of the method: as §1

CCF-STTG1 = CCF-STTG1 (Brain), 20 micromolar, 72 hrs
Summary of the method: as §1

ZR-75-30 = ZR-75-30 (Breast), 20 micromolar, 72 hrs
Summary of the method: as §1

A498 = A498 (listed under Lung), 20 micromolar, 72 hrs
Summary of the method: as §1

NCI-H1694 = NCI-H1694 (Lung), 20 micromolar, 72 hrs
Summary of the method: as §1

Colo 205 = settings: Colo 205, 20 micromolar, 72 hrs
Summary of the method: as §1

HGC-27 = HGC-27 (Stomach), 20 micromolar, 72 hrs
Summary of the method: as §1

NCI-H28 = NCI-H28 (Lung), 20 micromolar, 72 hrs
Summary of the method: as §1

MSTO-211-H = MSTO-211-H (Lung), 20 micromolar, 72 hrs
Summary of the method: as §1

J82 = J82 (Urinary bladder), 20 micromolar, 72 hrs
Summary of the method: as §1

NCI-H1623 = NCI-H1623 (Lung), 20 micromolar, 72 hrs
Summary of the method: as §1

ChaGo-K-1 = ChaGo-K-1 (Lung), 20 micromolar, 72 hrs
Summary of the method: as §1

HCC1937 = HCC1937 (Breast), 20 micromolar, 72 hrs
Summary of the method: as §1

Panc 03.27 = Panc 03.27 (Pancreas), 20 micromolar, 72 hrs
Summary of the method: as §1

T47D = T47D (Breast), 20 micromolar, 72 hrs
Summary of the method: as §1

HCC1395 = HCC1395 (Breast), 20 micromolar, 72 hrs
Summary of the method: as §1

NCI-H524 = NCI-H524 (Lung), 20 micromolar, 72 hrs
Summary of the method: as §1

BT-474 = BT-474 (Breast), 20 micromolar, 72 hrs
Summary of the method: as §1

HCC1599 = HCC1599 (Breast), 20 micromolar, 72 hrs
Summary of the method: as §1

C3A = C3A (Liver), 20 micromolar, 72 hrs
Summary of the method: as §1

A704 = A704 (Kidney), 20 micromolar, 72 hrs
Summary of the method: as §1

HPAF-II = HPAF-II (Pancreas), 20 micromolar, 72 hrs
Summary of the method: as §1

BT-549 = BT-549 (Breast), 20 micromolar, 72 hrs
Summary of the method: as §1

HCC1569 = HCC1569 (Breast), 20 micromolar, 72 hrs
Summary of the method: as §1

CW-2 = CW-2 (Colon), 20 micromolar, 72 hrs
Summary of the method: as §1

SW13 = SW13 (Adrenal gland), 20 micromolar, 72 hrs
Summary of the method: as §1

HEC-1-A = HEC-1-A (Uterus), 20 micromolar, 72 hrs
Summary of the method: as §1

| Compound | Percent Inhibition (T98G) [%] | Percent Inhibition (NCI-H1770) [%] | Percent Inhibition (RL95) [%] | Percent Inhibition (NCI-H2405) [%] | Percent Inhibition (Bel-7402) [%] | Percent Inhibition (HT-1197) [%] | Percent Inhibition (NCI-H2347) [%] | Percent Inhibition (C8166) [%] | Percent Inhibition (TCCSUP) [%] | Percent Inhibition (M059J) [%] | Percent Inhibition (CCF-STTG1) [%] | Percent Inhibition (ZR-75-30) [%] | Percent Inhibition (A498) [%] | Percent Inhibition (NCI-H1694) [%] | Percent Inhibition (Colo 205) [%] | Percent Inhibition (HGC-27) [%] | Percent Inhibition (NCI-H28) [%] | Percent Inhibition (MSTO-211-H) [%] | Percent Inhibition (J82) [%] | Percent Inhibition (NCI-H1623) [%] | other results |
| --- | --- | --- | --- | --- | --- | --- | --- | --- | --- | --- | --- | --- | --- | --- | --- | --- | --- | --- | --- | --- | --- |
| Bannaxanthone E [bn-3] | 99 | 98 | 98 | 96 | 98 | 98 | 89 | 98 | 96 | 97 | 93 | 99 | 96 | 99 | 99 | 98 | 95 | 98 | 98 | 95 | Percent Inhibition (ChaGo-K-1): 97%; Percent Inhibition (HCC1937): 98%; Percent Inhibition (Panc 03.27): 92%; Percent Inhibition (T47D): 96%; Percent Inhibition (HCC1395): 98%; Percent Inhibition (NCI-H524): 99%; Percent Inhibition (BT-474): 90%; Percent Inhibition (HCC1599): 98%; Percent Inhibition (C3A): 78%; Percent Inhibition (A704): 98%; Percent Inhibition (HPAF-II): 92%; Percent Inhibition (BT-549): 97%; Percent Inhibition (HCC1569): 97%; Percent Inhibition (CW-2): 99%; Percent Inhibition (SW13): 98%; Percent Inhibition (HEC-1-A): 88% |
| COc1c(O)c(O)c2c(=O)c3c(CC=C(C)C)c(CC=C(C)C)c(O)c(O)c3oc2c1CC=C(C)C [Compound N-7] | 17 | -6 | -16 | -7 | 15 | 13 | -18 | 10 | 18 | 10 | 6 | -11 | 13 | 25 | 9 | 0 | 21 | -1 | 17 | -8 | Percent Inhibition (ChaGo-K-1): 4%; Percent Inhibition (HCC1937): -5%; Percent Inhibition (Panc 03.27): -24%; Percent Inhibition (T47D): -9%; Percent Inhibition (HCC1395): 22%; Percent Inhibition (NCI-H524): -30%; Percent Inhibition (BT-474): -21%; Percent Inhibition (HCC1599): 8%; Percent Inhibition (C3A): 24%; Percent Inhibition (A704): 1%; Percent Inhibition (HPAF-II): 9%; Percent Inhibition (BT-549): -14%; Percent Inhibition (HCC1569): 5%; Percent Inhibition (CW-2): 22%; Percent Inhibition (SW13): -14%; Percent Inhibition (HEC-1-A): -17% |
| CC(C)=CCC[C@@]1(C)C=Cc2c(O)c3c(c(CC=C(C)C)c2O1)O[C@]12C(=C[C@@H]4C[C@H]1C(C)(C)O[C@@]2(C/C=C(/C)C(=O)O)C4=O)C3=O [GB11] | 99 | 98 | 99 | 98 | 98 | 98 | 98 | 99 | 99 | 98 | 98 | 99 | 98 | 99 | 98 | 98 | 99 | 98 | 98 | 98 | Percent Inhibition (ChaGo-K-1): 98%; Percent Inhibition (HCC1937): 98%; Percent Inhibition (Panc 03.27): 99%; Percent Inhibition (T47D): 99%; Percent Inhibition (HCC1395): 98%; Percent Inhibition (NCI-H524): 97%; Percent Inhibition (BT-474): 98%; Percent Inhibition (HCC1599): 99%; Percent Inhibition (C3A): 98%; Percent Inhibition (A704): 98%; Percent Inhibition (HPAF-II): 98%; Percent Inhibition (BT-549): 99%; Percent Inhibition (HCC1569): 99%; Percent Inhibition (CW-2): 98%; Percent Inhibition (SW13): 98%; Percent Inhibition (HEC-1-A): 99% |
| COc1cc(O)c2c(=O)c3ccc(O)c(O)c3oc2c1CC=C(C)C [gl-17] | 85 | 40 | 87 | 19 | 60 | 95 | 86 | 90 | 83 | 91 | 74 | 98 | 75 | 98 | 97 | 92 | 76 | 79 | 88 | 41 | Percent Inhibition (ChaGo-K-1): 87%; Percent Inhibition (HCC1937): 83%; Percent Inhibition (Panc 03.27): 84%; Percent Inhibition (T47D): 72%; Percent Inhibition (HCC1395): 89%; Percent Inhibition (NCI-H524): 98%; Percent Inhibition (BT-474): 89%; Percent Inhibition (HCC1599): 93%; Percent Inhibition (C3A): 89%; Percent Inhibition (A704): 42%; Percent Inhibition (HPAF-II): 89%; Percent Inhibition (BT-549): 65%; Percent Inhibition (HCC1569): 74%; Percent Inhibition (CW-2): 96%; Percent Inhibition (SW13): 85%; Percent Inhibition (HEC-1-A): 76% |
| CCOC1C2C(=O)c3c(O)c4c(c(CC=C(C)C)c3O[C@@]23[C@H]2C[C@@H]1C(=O)[C@]3(C/C=C(/C)C(=O)O)OC2(C)C)OC(C)(CCC=C(C)C)C=C4 (stereo partly drawn) [GB19] | 99 | 99 | 99 | 99 | 99 | 99 | 98 | 99 | 99 | 99 | 99 | 99 | 99 | 99 | 99 | 99 | 99 | 99 | 99 | 99 | Percent Inhibition (ChaGo-K-1): 99%; Percent Inhibition (HCC1937): 99%; Percent Inhibition (Panc 03.27): 99%; Percent Inhibition (T47D): 99%; Percent Inhibition (HCC1395): 99%; Percent Inhibition (NCI-H524): 99%; Percent Inhibition (BT-474): 99%; Percent Inhibition (HCC1599): 99%; Percent Inhibition (C3A): 99%; Percent Inhibition (A704): 99%; Percent Inhibition (HPAF-II): 98%; Percent Inhibition (BT-549): 99%; Percent Inhibition (HCC1569): 99%; Percent Inhibition (CW-2): 99%; Percent Inhibition (SW13): 99%; Percent Inhibition (HEC-1-A): 99% |
